The source of these data is ChEMBL document CHEMBL1131152, “In vitro and in vivo activities of oligodeoxynucleotide-based thrombin inhibitors containing neutral formacetal linkages” (J Med Chem, 1998).

The experiment addresses Prothrombin (Homo sapiens) (UniProt P00734). The experiment is described as follows: Relative prothrombin time was determined as the activity of the test ODN (oligodeoxynucleotide) relative to that of GS-522.

Consider `Cc1cn([C@H]2C[C@H](OP(=O)(O)OC[C@H]3O[C@@H](n4cc(C)c(=O)[nH]c4=O)C[C@@H]3OP(=O)(O)OC[C@H]3O[C@@H](n4cnc5c(=O)nc(N)[nH]c54)C[C@@H]3OP(=O)(O)OC[C@H]3O[C@@H](n4cnc5c(=O)[nH]c(=N)[nH]c54)C[C@@H]3OP(=O)(O)OC[C@H]3O[C@@H](n4cc(C)c(=O)[nH]c4=O)C[C@@H]3OP(=O)(O)OC[C@H]3O[C@@H](n4cnc5c(=O)[nH]c(=N)[nH]c54)C[C@@H]3OP(=O)(O)OC[C@H]3O[C@@H](n4cc(C)c(=O)[nH]c4=O)C[C@@H]3OP(=O)(O)OC[C@H]3O[C@@H](n4cnc5c(=O)nc(N)[nH]c54)C[C@@H]3OP(=O)(O)OC[C@H]3O[C@@H](n4cnc5c(=O)[nH]c(=N)[nH]c54)C[C@@H]3OP(=O)(O)OC[C@H]3O[C@@H](n4cc(C)c(=O)[nH]c4=O)C[C@@H]3OP(=O)(O)OC[C@H]3O[C@@H](n4cc(C)c(=O)[nH]c4=O)C[C@@H]3OP(=O)(O)OC[C@H]3O[C@@H](n4cnc5c(=O)[nH]c(=N)[nH]c54)C[C@@H]3OP(=O)(O)OC[C@H]3O[C@@H](n4cnc5c(=O)nc(N)[nH]c54)C[C@@H]3O)[C@@H](COCO[C@H]3C[C@H](n4cnc5c(=O)nc(N)[nH]c54)O[C@@H]3COP(=O)(O)O[C@H]3C[C@H](n4cnc5c(=O)nc(N)[nH]c54)O[C@@H]3COP(=O)(O)O)O2)c(=O)[nH]c1=O`, for which the Relative PT was found to be 0.9.

Molecule `Cc1cn([C@H]2C[C@H](OCOC[C@H]3O[C@@H](n4cc(C)c(=O)[nH]c4=O)C[C@@H]3OP(=O)(O)OC[C@H]3O[C@@H](n4cnc5c(=O)nc(N)[nH]c54)C[C@@H]3OP(=O)(O)OC[C@H]3O[C@@H](n4cnc5c(=O)[nH]c(=N)[nH]c54)C[C@@H]3OP(=O)(O)OC[C@H]3O[C@@H](n4cc(C)c(=O)[nH]c4=O)C[C@@H]3OP(=O)(O)OC[C@H]3O[C@@H](n4cnc5c(=O)nc(N)[nH]c54)C[C@@H]3OP(=O)(O)OC[C@H]3O[C@@H](n4cc(C)c(=O)[nH]c4=O)C[C@@H]3OP(=O)(O)OC[C@H]3O[C@@H](n4cnc5c(=O)nc(N)[nH]c54)C[C@@H]3OP(=O)(O)OC[C@H]3O[C@@H](n4cnc5c(=O)[nH]c(=N)[nH]c54)C[C@@H]3OP(=O)(O)OC[C@H]3O[C@@H](n4cc(C)c(=O)[nH]c4=O)C[C@@H]3OP(=O)(O)OC[C@H]3O[C@@H](n4cc(C)c(=O)[nH]c4=O)C[C@@H]3OP(=O)(O)OC[C@H]3O[C@@H](n4cnc5c(=O)[nH]c(=N)[nH]c54)C[C@@H]3OP(=O)(O)OC[C@H]3O[C@@H](n4cnc5c(=O)nc(N)[nH]c54)C[C@@H]3O)[C@@H](COP(=O)(O)O[C@H]3C[C@H](n4cnc5c(=O)[nH]c(=N)[nH]c54)O[C@@H]3COP(=O)(O)O[C@H]3C[C@H](n4cnc5c(=O)nc(N)[nH]c54)O[C@@H]3COP(=O)(O)O)O2)c(=O)[nH]c1=O` yielded a Relative PT of 1.1.

For the molecule `Cc1cn([C@H]2C[C@H](OP(=O)(O)OC[C@H]3O[C@@H](n4cnc5c(=O)nc(N)[nH]c54)C[C@@H]3OCOC[C@H]3O[C@@H](n4cnc5c(=O)[nH]c(=N)[nH]c54)C[C@@H]3OP(=O)(O)OC[C@H]3O[C@@H](n4cc(C)c(=O)[nH]c4=O)C[C@@H]3OP(=O)(O)OC[C@H]3O[C@@H](n4cnc5c(=O)[nH]c(=N)[nH]c54)C[C@@H]3OP(=O)(O)OC[C@H]3O[C@@H](n4cc(C)c(=O)[nH]c4=O)C[C@@H]3OP(=O)(O)OC[C@H]3O[C@@H](n4cnc5c(=O)nc(N)[nH]c54)C[C@@H]3OCOC[C@H]3O[C@@H](n4cnc5c(=O)[nH]c(=N)[nH]c54)C[C@@H]3OP(=O)(O)OC[C@H]3O[C@@H](n4cc(C)c(=O)[nH]c4=O)C[C@@H]3OP(=O)(O)OC[C@H]3O[C@@H](n4cc(C)c(=O)[nH]c4=O)C[C@@H]3OP(=O)(O)OC[C@H]3O[C@@H](n4cnc5c(=O)[nH]c(=N)[nH]c54)C[C@@H]3OP(=O)(O)OC[C@H]3O[C@@H](n4cnc5c(=O)nc(N)[nH]c54)C[C@@H]3O)[C@@H](COP(=O)(O)O[C@H]3C[C@H](n4cc(C)c(=O)[nH]c4=O)O[C@@H]3COP(=O)(O)O[C@H]3C[C@H](n4cnc5c(=O)nc(N)[nH]c54)O[C@@H]3COP(=O)(O)O[C@H]3C[C@H](n4cnc5c(=O)[nH]c(=N)[nH]c54)O[C@@H]3COP(=O)(O)O)O2)c(=O)[nH]c1=O`, the Relative PT amounted to 0.6.

In turn, `Cc1cn([C@H]2C[C@H](OP(=O)(O)OC[C@H]3O[C@@H](n4cnc5c(=O)nc(N)[nH]c54)C[C@@H]3OCOC[C@H]3O[C@@H](n4cnc5c(=O)[nH]c(=N)[nH]c54)C[C@@H]3OP(=O)(O)OC[C@H]3O[C@@H](n4cc(C)c(=O)[nH]c4=O)C[C@@H]3OP(=O)(O)OC[C@H]3O[C@@H](n4cnc5c(O)nc(=N)[nH]c54)C[C@@H]3OP(=O)(O)OC[C@H]3O[C@@H](n4cc(C)c(=O)[nH]c4=O)C[C@@H]3OP(=O)(O)OC[C@H]3O[C@@H](n4cnc5c(=O)nc(N)[nH]c54)C[C@@H]3OP(=O)(O)OC[C@H]3O[C@@H](n4cnc5c(=O)[nH]c(=N)[nH]c54)C[C@@H]3OP(=O)(O)OC[C@H]3O[C@@H](n4cc(C)c(=O)[nH]c4=O)C[C@@H]3OP(=O)(O)OC[C@H]3O[C@@H](n4cc(C)c(=O)[nH]c4=O)C[C@@H]3OP(=O)(O)OC[C@H]3O[C@@H](n4cnc5c(=O)[nH]c(=N)[nH]c54)C[C@@H]3OP(=O)(O)OC[C@H]3O[C@@H](n4cnc5c(=O)nc(N)[nH]c54)C[C@@H]3O)[C@@H](COP(=O)(O)O[C@H]3C[C@H](n4cc(C)c(=O)[nH]c4=O)O[C@@H]3COP(=O)(O)O[C@H]3C[C@H](n4cnc5c(=O)nc(N)[nH]c54)O[C@@H]3COCO[C@H]3C[C@H](n4cnc5c(=O)[nH]c(=N)[nH]c54)O[C@@H]3COP(=O)(O)O)O2)c(=O)[nH]c1=O` yielded a Relative PT of 0.6.

Take `Cc1cn([C@H]2C[C@H](OCOC[C@H]3O[C@@H](n4cc(C)c(=O)[nH]c4=O)C[C@@H]3OP(=O)(O)OC[C@H]3O[C@@H](n4cnc5c(=O)[nH]c(=N)[nH]c54)C[C@@H]3OP(=O)(O)OC[C@H]3O[C@@H](n4cnc5c(=O)nc(N)[nH]c54)C[C@@H]3O)[C@@H](COP(=O)(O)O[C@H]3C[C@H](n4cnc5c(=O)[nH]c(=N)[nH]c54)O[C@@H]3COP(=O)(O)O[C@H]3C[C@H](n4cnc5c(=O)nc(N)[nH]c54)O[C@@H]3COP(=O)(O)O[C@H]3C[C@H](n4cc(C)c(=O)[nH]c4=O)O[C@@H]3COP(=O)(O)O[C@H]3C[C@H](n4cnc5c(=O)[nH]c(=N)[nH]c54)O[C@@H]3COP(=O)(O)O[C@H]3C[C@H](n4cc(C)c(=O)[nH]c4=O)O[C@@H]3COP(=O)(O)O[C@H]3C[C@H](n4cnc5c(=O)[nH]c(=N)[nH]c54)O[C@@H]3COP(=O)(O)O[C@H]3C[C@H](n4cnc5c(=O)nc(N)[nH]c54)O[C@@H]3COP(=O)(O)O[C@H]3C[C@H](n4cc(C)c(=O)[nH]c4=O)O[C@@H]3COP(=O)(O)O[C@H]3C[C@H](n4cc(C)c(=O)[nH]c4=O)O[C@@H]3COP(=O)(O)O[C@H]3C[C@H](n4cnc5c(=O)nc(N)[nH]c54)O[C@@H]3COP(=O)(O)O[C@H]3C[C@H](n4cnc5c(=O)nc(N)[nH]c54)O[C@@H]3COP(=O)(O)O)O2)c(=O)[nH]c1=O`: the Relative PT turned out to be 1.1.

In turn, `Cc1cn([C@H]2C[C@H](OP(=O)(O)OC[C@H]3O[C@@H](n4cnc5c(=O)nc(N)[nH]c54)C[C@@H]3OP(=O)(O)OC[C@H]3O[C@@H](n4cnc5c(=O)[nH]c(=N)[nH]c54)C[C@@H]3OP(=O)(O)OC[C@H]3O[C@@H](n4cc(C)c(=O)[nH]c4=O)C[C@@H]3OP(=O)(O)OC[C@H]3O[C@@H](n4cnc5c(=O)nc(N)[nH]c54)C[C@@H]3OP(=O)(O)OC[C@H]3O[C@@H](n4cc(C)c(=O)[nH]c4=O)C[C@@H]3OP(=O)(O)OC[C@H]3O[C@@H](n4cnc5c(=O)nc(N)[nH]c54)C[C@@H]3OP(=O)(O)OC[C@H]3O[C@@H](n4cnc5c(=O)[nH]c(=N)[nH]c54)C[C@@H]3OP(=O)(O)OC[C@H]3O[C@@H](n4cc(C)c(=O)[nH]c4=O)C[C@@H]3OP(=O)(O)OC[C@H]3O[C@@H](n4cc(C)c(=O)[nH]c4=O)C[C@@H]3OP(=O)(O)OC[C@H]3O[C@@H](n4cnc5c(=O)[nH]c(=N)[nH]c54)C[C@@H]3OP(=O)(O)OC[C@H]3O[C@@H](n4cnc5c(=O)nc(N)[nH]c54)C[C@@H]3O)[C@@H](COP(=O)(O)O[C@H]3C[C@H](n4cc(C)c(=O)[nH]c4=O)O[C@@H]3COP(=O)(O)O[C@H]3C[C@H](n4cnc5c(=O)[nH]c(=N)[nH]c54)O[C@@H]3COCO[C@H]3C[C@H](n4cnc5c(=O)nc(N)[nH]c54)O[C@@H]3COP(=O)(O)O)O2)c(=O)[nH]c1=O` came in with a Relative PT of 0.9.

Consider `Cc1cn([C@H]2C[C@H](OCOC[C@H]3O[C@@H](n4cc(C)c(=O)[nH]c4=O)C[C@@H]3OP(=O)(O)OC[C@H]3O[C@@H](n4cnc5c(=O)nc(N)[nH]c54)C[C@@H]3OP(=O)(O)OC[C@H]3O[C@@H](n4cnc5c(=O)[nH]c(=N)[nH]c54)C[C@@H]3OCOC[C@H]3O[C@@H](n4cc(C)c(=O)[nH]c4=O)C[C@@H]3OP(=O)(O)OC[C@H]3O[C@@H](n4cnc5c(=O)nc(N)[nH]c54)C[C@@H]3OCOC[C@H]3O[C@@H](n4cc(C)c(=O)[nH]c4=O)C[C@@H]3OP(=O)(O)OC[C@H]3O[C@@H](n4cnc5c(=O)nc(N)[nH]c54)C[C@@H]3OP(=O)(O)OC[C@H]3O[C@@H](n4cnc5c(=O)[nH]c(=N)[nH]c54)C[C@@H]3OP(=O)(O)OC[C@H]3O[C@@H](n4cc(C)c(=O)[nH]c4=O)C[C@@H]3OCOC[C@H]3O[C@@H](n4cc(C)c(=O)[nH]c4=O)C[C@@H]3OP(=O)(O)OC[C@H]3O[C@@H](n4cnc5c(=O)[nH]c(=N)[nH]c54)C[C@@H]3OP(=O)(O)OC[C@H]3O[C@@H](n4cnc5c(=O)nc(N)[nH]c54)C[C@@H]3O)[C@@H](COP(=O)(O)O[C@H]3C[C@H](n4cnc5c(=O)[nH]c(=N)[nH]c54)O[C@@H]3COP(=O)(O)O[C@H]3C[C@H](n4cnc5c(=O)nc(N)[nH]c54)O[C@@H]3COP(=O)(O)O)O2)c(=O)[nH]c1=O`, for which the Relative PT turned out to be 0.8.
